In patent publication US11208388B2, “Certain chemical entities, compositions, and methods” (NeuPharma, Inc., priority 2016, dated 2021):

Assays:
OCI-LY10 cells = test: OCI-Ly10 cell proliferation, Alamar Blue (resazurin), 72 hours; type: cell-based
Description: OCI-Ly10 cells were cultured in Iscove's DMEM supplemented with 20% fetal bovine serum and IX penicillin/streptomycin/glutamine. The cells were maintained in T175 flasks under 5% CO2 in a 37° C. humidified incubator for 5 days prior to plating and assay.
Cells were pooled by centrifugation (200 ref, 8 minutes) and resuspended in fresh medium to a concentration of 2.00E+05 cells/ml. 200 μl of the cell suspension was added to each well (40,000 cells/well) of a black-walled 96 well plate to which 1 μl of compound (n=3 per concentration) in 100% DMSO (0.5% final concentration) was added per well. Vehicle and cell free wells were also included in the assay. The dosed cells were cultured under normal conditions for 72 hours.
Cell proliferation is measured using the dye Alamar Blue (resazurin). Resazurin is reduced to resorufin by cellular enzymes and is fluorescent (544 nm excitation, 612 nm emission). Fluorescence intensity is proportional to cell number. Resazurin was prepared in PBS to a stock concentration of 440 μM. 40 μl of the 440 μM resazurin stock solution was added 3 hours prior to the 72 hour termination of the assay. The plate was returned to normal culture conditions and fluorescence measurements were collected using a Cytation3 multimode plate reader (Biotek) at 72 hours.
The scale utilized in Table 8 is as follows: ++ less than 50 nM and + greater than 50 nM.

BTK = BTK (Homo sapiens (Human), UniProt Q06187); test: Z'-LYTE kinase inhibition assay against BTK; type: biochemical; details: compound at 100 nM; ATP concentration at Km
Description: Inhibitory activities of compounds against BTK, EGFR T790M, EGFR L858R, and EGFR L858R/T790M were measured using Z′-LYTE® Method from Life Technologies as briefly described in the following.
Test Compounds are screened in […] DMSO (final) in the well. For 10 point titrations, 3-fold serial dilutions are conducted from the starting concentration. All ATP Solutions are diluted to a 4× working concentration in Kinase Buffer (50 mM HEPES pH 7.5, 0.01% BRIJ-35, 10 mM MgCl2, 1 mM EGTA). Peptide/Kinase Mixtures are diluted to a 2× working concentration in the appropriate Kinase Buffers as described below. • (i) Peptide/Kinase Mixtures for measurement of EGFR (ErbB1) L858R: • The 2×EGFR (ErbB1) L858R/Tyr 04 mixture is prepared in 50 mM HEPES pH 7.5, 0.01% BRIJ-35, 10 mM MgCl2, 4 mM MnCl2, 1 mM EGTA, 2 mM DTT. The final 10 μL Kinase Reaction consists of 0.2-1.68 ng EGFR (ErbB1) L858R and 2 μM Tyr 04 in 50 mM HEPES pH 7.5, 0.01% BRIJ-35, 10 mM MgCl2, 2 mM MnCl2, 1 mM EGTA, 1 mM DTT. After the 1 hour Kinase Reaction incubation, 5 μL of a 1:64 dilution of Development Reagent B is added. • (ii) Peptide/Kinase Mixtures for measurement of EGFR (ErbB1) T790M: The 2×EGFR (ErbB1) T790M/Tyr 04 mixture is prepared in 50 mM HEPES pH 6.5, 0.01% BRIJ-35, 10 mM MgCl2, 1 mM EGTA, 0.02% NaN3. The final 10 μL Kinase Reaction consists of 3.9-30.2 ng EGFR (ErbB1) T790M and 2 μM Tyr 04 in 50 mM HEPES pH 7.0, 0.01% BRIJ-35, 10 mM MgCl2, 1 mM EGTA, 0.01% NaN3. After the 1 hour Kinase Reaction incubation, 5 μL of a 1:64 dilution of Development Reagent B is added. • (iii) Peptide/Kinase Mixtures for measurement of EGFR (ErbB1) L858R/T790M: The 2×EGFR (ErbB1) T790M L858R/Tyr 04 mixture is prepared in 50 mM HEPES pH 6.5, 0.01% BRIJ-35, 10 mM MgCl2, 1 mM EGTA, 0.02% NaN3. The final 10 μL Kinase Reaction consists of 0.38-4.22 ng EGFR (ErbB1) T790M L858R and 2 μM Tyr 04 in 50 mM HEPES pH 7.0, 0.01% BRIJ-35, 10 mM MgCl2, 1 mM EGTA, 0.01% NaN3. After the 1 hour Kinase Reaction incubation, 5 μL of a 1:64 dilution of Development Reagent B is added. • (iv) Peptide/Kinase Mixtures for measurement of BTK: The 2×BTK/Tyr 01 mixture is prepared in 50 mM HEPES pH 7.5, 0.01% BRIJ-35, 10 mM MgCl2, 1 mM EGTA. […]
Reaction starts by 30-second shaking of mixture consisting of 2.5 μL 4× test compound, 5 μL 2× kinase reaction mixture and 2.5 μL 4×ATP Solution on Bar-coded Corning, low volume NBS, black 384-well plate (Corning Cat. #3676). […] Finally fluorescence is read by plate reader. […]
To determine IC50 of a compound against a kinase, a series of concentrations of the compound were tested for the inhibition. IC50 was calculated by plotting the concentration of compound vs the percentage of inhibition in treated wells using GraphPad Prism 5. […]

BTK, sequence (Q06187 whole entry): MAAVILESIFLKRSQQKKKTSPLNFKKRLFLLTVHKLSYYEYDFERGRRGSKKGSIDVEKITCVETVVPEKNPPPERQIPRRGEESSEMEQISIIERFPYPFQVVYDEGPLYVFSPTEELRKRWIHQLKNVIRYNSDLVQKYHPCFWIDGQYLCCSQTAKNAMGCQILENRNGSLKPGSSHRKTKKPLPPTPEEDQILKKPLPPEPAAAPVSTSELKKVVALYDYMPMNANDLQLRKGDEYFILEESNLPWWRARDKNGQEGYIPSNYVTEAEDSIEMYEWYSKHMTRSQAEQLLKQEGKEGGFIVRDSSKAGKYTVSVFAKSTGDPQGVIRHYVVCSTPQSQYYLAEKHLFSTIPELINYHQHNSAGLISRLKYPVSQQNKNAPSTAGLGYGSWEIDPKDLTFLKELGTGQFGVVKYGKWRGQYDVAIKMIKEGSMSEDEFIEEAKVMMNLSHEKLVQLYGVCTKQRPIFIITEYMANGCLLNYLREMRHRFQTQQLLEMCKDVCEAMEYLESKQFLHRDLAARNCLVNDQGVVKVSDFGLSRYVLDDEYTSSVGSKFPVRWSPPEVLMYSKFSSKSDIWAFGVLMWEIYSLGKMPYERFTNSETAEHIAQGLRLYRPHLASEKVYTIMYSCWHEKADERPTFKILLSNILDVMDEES

| Compound | IC50 (OCI-LY10 cells) [nM] | % Inhibition against BTK (BTK) |
| --- | --- | --- |
| C=CC(=O)Nc1cccc(-c2cc(-c3cccnc3)cc3cnc(N)nc23)c1 [Example C035, N-(3-(2-amino-6-(pyridin-3-yl)quinazolin-8-yl)phenyl)-acrylamide] | > 50 | ++ (more than 50% inhibition) |
| C=CC(=O)Nc1cccc(-c2cc(-c3ccc(C(=O)Nc4ccccc4)nc3)cc3cnc(N)nc23)c1 [Example C059, 5-(8-(3-acrylamidophenyl)-2-aminoquinazolin-6-yl)-N-phenylpicolinamide] | – | + (less than 50% inhibition) |
| C=CC(=O)N1CCC(c2cc(-c3ccc(C(=O)Nc4cccc(F)c4)nc3)cc3cncnc23)C1 (stereo not drawn) [Example C097, 5-(8-(1-acryloylpyrrolidin-3-yl)quinazolin-6-yl)-N-(3-fluorophenyl)picolinamide] | – | + (less than 50% inhibition) |
| C=CC(=O)Nc1cccc(-c2cc(-c3ccc(Oc4ncccc4F)cc3F)cc3cncnc23)c1 [Example C105, N-(3-(6-(2-fluoro-4-((3-fluoropyridin-2-yl)oxy)-phenyl)quinazolin-8-yl)-phenyl)acrylamide] | < 50 | ++ (more than 50% inhibition) |
